Source: US4806361A, “Medicaments in sustained release unit dose form” (Sterling Drug Inc., priority 1984, dated 1989)

Legend:
[1] = Urinary recovery of active ingredient over 0-24 hours (HPLC); parameters: species or system human; settings: in vivo
Method: After measuring volume and pH, aliquots were stored below -15° C. pending assay for the active ingredient by a validated HPLC procedure.
The resulting linear regression was used to determine urine concentrations of the active ingredient in each sample. Recovered amounts of the active ingredient were then calculated from the urine volume for the collection period of each sample.

[2] = pH 6.0-7.0; cited from earlier work

Structure (SMILES) | Excretion [1] | Metabolism [1] | Solubility [2]
Cc1[nH]c(=O)c(C#N)cc1-c1ccncc1 [1,2-dihydro-3-cyano-6-methyl-5-(4-pyridinyl)-2(1H)-pyridinone] | excreted in the urine | only slightly metabolized | –
OCCN(CCO)c1nc(N2CCCCC2)c2nc(N(CCO)CCO)nc(N3CCCCC3)c2n1 [dipyridamole] | – | – | insoluble
